Laboratory results: ChEMBL document CHEMBL1201862, “PubChem BioAssay data set” (2004)
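Values below derive from 48-hour exposures of cells grown in 96-well plates, with endpoints linearly interpolated between the two concentrations bracketing the appropriate inhibition level. The concentration for 50% growth inhibition is given as GI50.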 Active and inactive are the calls of the source. Cut-off read from the data, not from the text of the source: active = GI50 up to about 1.1 µM and inactive = higher.

What was measured:
Test in all cases: growth of human tumour cells (NCI), 48 h
[1] = tested on: NCI/ADR-RES
[2] = tested on: UO-31
[3] = tested on: KM12
[4] = tested on: CAKI-1
[5] = tested on: MDA-N
[6] = tested on: OVCAR-8
[7] = tested on: ACHN
[8] = tested on: SF-295
[9] = tested on: HCT-15
[10] = tested on: SF-539
[11] = tested on: COLO 205
[12] = tested on: SNB-19
[13] = tested on: M14
[14] = tested on: MDA-MB-435
[15] = tested on: OVCAR-3
[16] = tested on: HCT-116
[17] = tested on: A549
[18] = tested on: A498
[19] = tested on: SNB-75
[20] = tested on: SW-620

Structure (SMILES) | GI50 [1] | GI50 [2] | GI50 [3] | GI50 [4] | GI50 [5] | GI50 [6] | GI50 [7] | GI50 [8] | GI50 [9] [µM] | GI50 [10] | GI50 [11] | GI50 [12] | GI50 [13] | GI50 [14] | GI50 [15] | GI50 [16] | GI50 [17] | GI50 [18] | GI50 [19] | GI50 [20]
COc1ccc2cc(-c3nc(N)nc(N4N=C(C)CC4(C)C)n3)c(=N)oc2c1 | 31.4 µM (inactive) | 21.5 µM (inactive) | 15.9 µM (inactive) | 17.5 µM (inactive) | 17.1 µM (inactive) | 23 µM (inactive) | 16.3 µM (inactive) | 18.3 µM (inactive) | 14.8 | 16 µM (inactive) | 16.6 µM (inactive) | 19.3 µM (inactive) | 21.5 µM (inactive) | 18.5 µM (inactive) | 15.2 µM (inactive) | 19.1 µM (inactive) | 24.9 µM (inactive) | 32.3 µM (inactive) |  | 
Nc1ccc(-c2nc3ccccc3s2)cc1Cl | > 100 µM (inactive) | 23.3 µM (inactive) | 40.3 µM (inactive) | > 93.3 µM (inactive) | > 100 µM (inactive) | > 100 µM (inactive) | > 100 µM (inactive) | 53.5 µM (inactive) | > 48.8 | 77.6 µM (inactive) | > 56.2 µM (inactive) | > 70.8 µM (inactive) | > 100 µM (inactive) | > 100 µM (inactive) | < 0.01 µM (active) | > 100 µM (inactive) | > 87.1 µM (inactive) | 0.223 µM (active) | 16.6 µM (inactive) | > 100 µM (inactive)
CC1CC/C(=C\c2ccc(N(C)C)cc2)C(=O)/C1=C/c1ccc(N(C)C)cc1 (stereo not drawn) | > 100 µM (inactive) | > 100 µM (inactive) | > 100 µM (inactive) | > 100 µM (inactive) | > 100 µM (inactive) | > 100 µM (inactive) | > 100 µM (inactive) | > 100 µM (inactive) | > 100 | > 100 µM (inactive) | > 100 µM (inactive) |  | > 100 µM (inactive) | > 100 µM (inactive) | > 100 µM (inactive) | > 100 µM (inactive) | > 100 µM (inactive) | > 100 µM (inactive) | > 100 µM (inactive) | > 100 µM (inactive)
CC(C)(C)C(=O)OC(N)/C=C/c1ccccc1 (stereo not drawn) | > 100 µM (inactive) | > 100 µM (inactive) | > 100 µM (inactive) | > 100 µM (inactive) | > 100 µM (inactive) | > 100 µM (inactive) | > 100 µM (inactive) | > 100 µM (inactive) | > 100 | > 100 µM (inactive) | > 100 µM (inactive) |  | > 100 µM (inactive) | > 100 µM (inactive) | > 100 µM (inactive) | > 100 µM (inactive) | > 100 µM (inactive) | > 100 µM (inactive) | > 100 µM (inactive) | > 100 µM (inactive)
CN1CCc2nc(N)nc(-c3nc(N)nc4c3CN(C)CC4)c2C1 | > 100 µM (inactive) | > 100 µM (inactive) | > 100 µM (inactive) | > 100 µM (inactive) | > 100 µM (inactive) | > 100 µM (inactive) | > 100 µM (inactive) | > 100 µM (inactive) | > 100 | > 100 µM (inactive) | > 100 µM (inactive) | > 100 µM (inactive) | > 100 µM (inactive) | > 100 µM (inactive) | > 100 µM (inactive) | > 100 µM (inactive) | > 100 µM (inactive) | > 100 µM (inactive) |  | > 100 µM (inactive)
CN(C)/C=N/c1ccc2[nH]c3ccccc3c2c1 | 53.7 µM (inactive) | 29 µM (inactive) |  | 35.2 µM (inactive) | 18.2 µM (inactive) | 37.7 µM (inactive) | 48.1 µM (inactive) | 31.3 µM (inactive) | 20.6 | 20.8 µM (inactive) | 16.6 µM (inactive) | > 100 µM (inactive) | 15.1 µM (inactive) | 18 µM (inactive) | > 100 µM (inactive) | 34.6 µM (inactive) | 39.7 µM (inactive) | 20.9 µM (inactive) | 37.7 µM (inactive) | 
CC(=O)/N=C1/N(/C=C2\C(=O)Oc3ccccc3C2=O)C(=O)/C(=C/c2cccc(Cl)c2Cl)N1C | 22.5 µM (inactive) |  | 26.7 µM (inactive) | 27.4 µM (inactive) | 42.8 µM (inactive) | 19.7 µM (inactive) | 13.7 µM (inactive) | 34.4 µM (inactive) | 9.82 | 4.42 µM (inactive) | 31.3 µM (inactive) |  | 14.8 µM (inactive) | 25.6 µM (inactive) | 1.39 µM (inactive) | 29.4 µM (inactive) | 28.2 µM (inactive) | 4.68 µM (inactive) | 17.3 µM (inactive) | 29.9 µM (inactive)
O=C(/C=C/c1ccccc1)Oc1ccc(C(=O)/C=C/c2ccc(Cl)cc2)cc1 | 46.5 µM (inactive) | 63.8 µM (inactive) | 33.8 µM (inactive) | > 100 µM (inactive) | 37.2 µM (inactive) | 42.3 µM (inactive) | > 100 µM (inactive) | 82.6 µM (inactive) |  | 28 µM (inactive) | > 100 µM (inactive) | 46.1 µM (inactive) | > 100 µM (inactive) | 25.1 µM (inactive) | > 100 µM (inactive) | 83.4 µM (inactive) | > 100 µM (inactive) | > 100 µM (inactive) | 75.3 µM (inactive) | > 100 µM (inactive)
CCCCCc1cc2cc3c(c(O)c2c(=O)[nH]1)C1(CC3)C(=O)c2c(O)c3c(c(O)c2C1=O)C(=O)C(OC)=CC3=O (stereo not drawn) | 1.17 µM (inactive) | 0.687 µM (active) | 1.26 µM (inactive) | 0.259 µM (active) | 1.3 µM (inactive) | 0.622 µM (active) | 0.522 µM (active) | 3.01 µM (inactive) | 0.388 |  | 0.206 µM (active) | 1.08 µM (active) | 0.893 µM (active) | 1.49 µM (inactive) | 0.44 µM (active) | 0.433 µM (active) | 0.845 µM (active) | 2.31 µM (inactive) | 1.58 µM (inactive) | 0.442 µM (active)
CC(C)C[C@H](NC(=O)[C@H](Cc1ccccc1)NC(=O)c1cnccn1)B(O)O [BORTEZOMIB] | 0.0141 µM (active) | < 0.01 µM (active) | < 0.01 µM (active) | < 0.01 µM (active) | < 0.01 µM (active) | < 0.01 µM (active) | < 0.01 µM (active) | < 0.01 µM (active) | < 0.01 | < 0.01 µM (active) | < 0.01 µM (active) |  | < 0.01 µM (active) | < 0.01 µM (active) | < 0.01 µM (active) | < 0.01 µM (active) | < 0.01 µM (active) | < 0.01 µM (active) | < 0.01 µM (active) | < 0.01 µM (active)
COc1ccc2nc3c(nc2c1)C(C)(C)C=C3c1ccc(Br)cc1 | > 100 µM (inactive) |  | > 100 µM (inactive) | > 100 µM (inactive) | > 100 µM (inactive) | > 100 µM (inactive) | > 100 µM (inactive) |  | > 100 | 97.3 µM (inactive) | > 100 µM (inactive) | > 100 µM (inactive) | > 100 µM (inactive) | > 100 µM (inactive) |  | > 100 µM (inactive) | > 100 µM (inactive) | > 100 µM (inactive) | 87.7 µM (inactive) | 5.68 µM (inactive)
Nc1nc(Cl)cc(NCC2(O)CC2)n1 | > 100 µM (inactive) | > 100 µM (inactive) | > 100 µM (inactive) | > 100 µM (inactive) | > 100 µM (inactive) | > 100 µM (inactive) | > 100 µM (inactive) | > 100 µM (inactive) | > 100 | > 100 µM (inactive) |  | > 100 µM (inactive) |  | > 100 µM (inactive) | > 100 µM (inactive) | > 100 µM (inactive) | > 100 µM (inactive) | > 100 µM (inactive) | > 100 µM (inactive) | > 100 µM (inactive)
CC1=NN(c2cccc(Cl)c2)C2(C1=Cc1ccccc1)C(Cl)C(=O)N2c1nc2ccccc2s1 (stereo not drawn) | 20.4 µM (inactive) | 16.3 µM (inactive) | 17.3 µM (inactive) | 17.7 µM (inactive) | 19.8 µM (inactive) | 32.1 µM (inactive) | 16.7 µM (inactive) | 20.2 µM (inactive) | 15.9 | 33.2 µM (inactive) |  |  | 20.4 µM (inactive) | 19.3 µM (inactive) | 16.3 µM (inactive) | 16.7 µM (inactive) |  | 18.2 µM (inactive) |  | 19.8 µM (inactive)
COC(=O)N1CC(=O)C(C(=O)NC23CC4CC(CC(C4)C2)C3)C1 (stereo not drawn) | 84.1 µM (inactive) | > 100 µM (inactive) | 41.8 µM (inactive) | > 100 µM (inactive) | > 100 µM (inactive) | 73.1 µM (inactive) | 74.3 µM (inactive) | 56.6 µM (inactive) | 39.2 | 72.9 µM (inactive) | 62.1 µM (inactive) | > 100 µM (inactive) | > 100 µM (inactive) | > 100 µM (inactive) | > 100 µM (inactive) | 64.6 µM (inactive) | > 100 µM (inactive) | > 100 µM (inactive) |  | > 100 µM (inactive)
Cc1nn(-c2ccccc2)c2nc(S)cnc12 | > 100 µM (inactive) | > 100 µM (inactive) |  | > 100 µM (inactive) | > 100 µM (inactive) | > 100 µM (inactive) |  | > 100 µM (inactive) |  | > 100 µM (inactive) |  | > 100 µM (inactive) | > 100 µM (inactive) | > 100 µM (inactive) | > 100 µM (inactive) | > 100 µM (inactive) | > 100 µM (inactive) | > 100 µM (inactive) |  | > 100 µM (inactive)
